Source: publication PMC10945480 (Journal of Medicinal Chemistry, 2024)
Where two headings read alike, the source gives them in different places.

Tests used:
[1] = test system: washed human platelets coincubated with A549, MDA-MB-231, or RPMI8226 cancer cells; assay: Tumor cell-induced platelet aggregation (TCIPA); type: cell-based
[2] = test system: washed human platelets coincubated with A549 cancer cells; assay: Tumor cell-induced platelet secretion (PDGF, ATP); type: cell-based
Method: (§1) (a) Washed human platelets were coincubated with A549 cancer cells under the same conditions as described in Figure 4. Secretion of PDGF and ATP were determined with the enzyme-linked immunosorbent assay (ELISA) and bioluminescent assay, respectively. (b) A549 cancer cells were coincubated with washed human platelets at 37 °C and 5% CO2 in a cell culture incubator for 48 h. After washing with PBS, the numbers of viable cancer cells were determined by trypan blue exclusion. Data are mean ± SEM of at least three independent experiments.
Washed human platelets were coincubated with cancer cells under the same conditions as described in the TCIPA assay. After a 25 min incubation in the aggregometer, the samples were centrifuged at 13,000g for 1 min. The concentrations of PDGF-BB and ATP in the supernatants were determined using an ELISA kit (Abcam, Cambridge, UK) and an ATP bioluminescent assay kit (Sigma, MO, USA), respectively.[52]

[3] = test system: washed human platelets; assay: U46619-induced platelet aggregation; type: cell-based; settings: Platelet; washed human platelets, U46619 (1 μM)
Method: (§2) The antiplatelet effects of the JUG derivatives were evaluated by measuring human platelet aggregation, which can be regulated by cell surface PDI. Platelet aggregation was induced with platelet activators U46619 (a mimetic of thromboxane A2) and collagen (binding to GPVI).
(§3) Washed human platelets were prepared from acid citrate dextrose-anticoagulated blood of healthy human volunteers as described previously.[73] The study was approved by the Institutional Review Board of Kaohsiung Medical University, and informed consent was obtained from every volunteer. Platelet aggregation was measured by using a turbidimetric aggregometer (Chrono-Log Co., USA) under stirring conditions (1200 rpm) at 37 °C. The extent of platelet aggregation was measured as the maximal increase of light transmission after the addition of the stimulators U46619 and collagen.[73] In the TCIPA assay, platelet aggregation was induced by A549 (1 × 10^4 cells/mL), MDA-MB-231 (1 × 10^2 cells/mL), or RPMI8226 (1 × 10^5 cells/mL) cancer cells in the presence of 0.375% plasma.[74]

[4] = test system: washed human platelets; assay: Collagen-induced platelet aggregation; type: cell-based; settings: Platelet; washed human platelets, collagen (5 μg/mL)
Method: as §2, §3

[5] = Parallel artificial membrane permeability assay (PAMPA); settings: 50 μM, 25 ℃, 3 h, verapamil = 100%, ranitidine = 0%
Method: 1. Parallel artificial membrane permeability assay (PAMPA). […]
evolution instruments from pION Inc. In the PAMPA assay, a set of sandwich plates consists of a 96-well microtiter donor plate at the bottom and a 96-well filter acceptor plate on the top from […]
The stock solutions of samples were prepared at 10 mM concentrations in DMSO and stored at 0 ℃ before use. Before being added to a 96-well filter plate, the stock solution was diluted first with buffer to achieve a final sample concentration of 50 μM and to reduce the DMSO concentration below 1% (v/v). Each well of the 96-well donor plate was filled with a 200 μL diluted sample solution (50 μM), and the 96-well filter acceptor plate was then wetted with a 5 μL 2% w/v dioleyoylphosphatidylcholine (DOPC) in n-dodecane and subsequently placed on the donor wells.
Immediately, the acceptor wells were filled with 200 μL of buffer solution and the PAMPA plate sandwich was sealed and incubated at 25 ℃ for 3 h. After reaching the permeation time, the PAMPA plate sandwich was separated and transferred to 96-well UV plates respectively. The amounts of drugs in both the donor and acceptor compartments were measured by comparing the experimental spectra with the UV spectrum (220∼400 nm) obtained from reference standards.

[6] = molecular target: Human rPDI (Homo sapiens, UniProt P07237); assay: Effect of GSH on rPDI inhibition (Di-E-GSSG assay); type: biochemical; settings: 10 μM compound, 1 mM GSH vs 5 μM DTT
Method: (§4) GSH is the major cellular nonprotein thiol, which exists within cells at millimolar concentrations (1–8 mM) while is present extracellularly at only a few micromolar.[53] The high concentrations of intracellular GSH thus may compete with the binding of PDI to covalent PDI inhibitors.[54] […] In this assay, the noncovalent PDI inhibitor isoquercetin was used as a negative control.
Data are mean ± SEM of three independent experiments.

[7] = test system: glioma U87; assay: Cell viability, resazurin assay, U87; settings: Homo sapiens, 24 h, read-out: U87 IC50
Method: (§5) Cells were maintained in a humidified incubator at 37 °C in 5% CO2, and cell viability was determined with the resazurin assay (Cayman Chemical, USA) after the incubation with compounds for indicated concentrations and times or DMSO as control.[72]

[8] = test system: lung cancer A549; assay: Cell viability, resazurin assay, A549; settings: Homo sapiens, A549, 24 h, read-out: A549 IC50
Method: as §5

[9] = test system: multiple myeloma RPMI8226; assay: Cell viability, resazurin assay, RPMI8226; settings: for IC50: Homo sapiens; for S.I. (EAhy926/RPMI8226), selectivity index: 24 h IC50 ratio
Method: as §5

[10] = test system: human vascular endothelial EA.hy926 cells; assay: Cell viability, resazurin assay, EA.hy926; settings: EA.hy 926, 24 h, read-out: EAhy926 IC50
Method: as §5

[11] = test system: breast cancer MDA-MB-231; assay: Cell viability, resazurin assay, MDA-MB-231; settings: Homo sapiens, MDA-MB-231, 24 h, read-out: MDA-MB-231 IC50
Method: as §5

[12] = molecular target: purified human recombinant PDI (rPDI) (Homo sapiens, UniProt P07237); assay: Recombinant PDI reductase activity (Di-E-GSSG assay); settings: human recombinant PDI, Di-E-GSSG
Method: (§6) In this assay, a nonfluorescent substrate, dieosin glutathione disulfide (Di-E-GSSG), was reduced into a fluorescent product eosin-glutathione (E-GSH) by platelet surface PDI in the presence of 5 μM dithiothreitol (DTT).

[13] = molecular target: platelet surface PDI (Homo sapiens, UniProt P07237); assay: Cell surface PDI reductase activity on intact human platelets (Di-E-GSSG assay); settings: read-out: Surface PDI IC50; intact human platelets, Di-E-GSSG, 5 μM DTT
Method: as §6

[14] = molecular target: T1, ERp57 (PDIA3) (Homo sapiens, UniProt P30101); assay: ERp57 reductase assay (Di-E-GSSG); type: biochemical; settings: ERp57 and ERp72 together, fold higher than required to inhibit PDI
T1 sequence (P30101 25-505): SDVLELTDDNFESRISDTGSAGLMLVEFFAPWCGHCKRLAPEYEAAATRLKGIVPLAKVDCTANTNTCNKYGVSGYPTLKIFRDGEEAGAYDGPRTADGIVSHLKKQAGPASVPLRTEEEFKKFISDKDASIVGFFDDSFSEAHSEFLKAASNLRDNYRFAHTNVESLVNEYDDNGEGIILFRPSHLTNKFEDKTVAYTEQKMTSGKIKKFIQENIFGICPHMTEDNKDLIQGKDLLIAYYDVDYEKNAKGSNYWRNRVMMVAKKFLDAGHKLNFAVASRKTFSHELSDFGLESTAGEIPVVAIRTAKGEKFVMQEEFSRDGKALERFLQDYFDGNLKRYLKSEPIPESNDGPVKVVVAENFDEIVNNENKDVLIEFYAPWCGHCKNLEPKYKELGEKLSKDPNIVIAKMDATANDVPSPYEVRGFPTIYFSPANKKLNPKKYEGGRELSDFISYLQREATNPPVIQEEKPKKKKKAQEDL
Excerpt: In addition to PDI, ERp57 (PDIA3) and ERp72 (PDIA4) are two other major members of the PDI family in both platelets and A549 cells.[62],[63]

[15] = test system: A549 cancer cells; assay: Platelet-enhanced tumor cell proliferation; type: cell-based, human; settings: A549 plus platelets, 48 h, 0.5 to 2 μM
Method: In order to examine platelet-enhanced cancer cell growth, A549 cancer cells were coincubated with platelets for 48 h.
as §1, with “Figure 5 Inhibitory effects of JUG derivatives 18 and 22 on tumor cell-induced platelet secretion and platelet-enhanced tumor cell proliferation. (a)” for “(a)”, “experiments. In (a), *P < 0.05; **P < 0.01; ***P < 0.001 as compared with vehicle control (DMSO). In (b), *P < 0.05; **P < 0.01; ***P < 0.001 as compared with A549 cells plus platelets.” for “experiments.”
A549 cells (1 × 10^4 cells/well) were seeded in a 96-well plate and coincubated with wash human platelets (1 × 10^7 cells/well) containing with 0.375% plasma for 48 h at 37 °C and 5% CO2 in a cell culture incubator. After washing with phosphate buffered saline, the numbers of viable cancer cells were determined by trypan blue exclusion.

[16] = UPLC-MS analysis of compound metabolites in water with or without GSH; type: physicochemical; settings: 37 °C, 30 min
Method: as §4
Compounds (400 μM) were incubated in water (250 μL) with or without GSH (4 mM) at 37 °C for 30 min. The compound mixture was diluted with methanol (250 μL) and used for UPLC-MS analysis Metabolite analysis was performed on an ACQUITY UPLC I-Class/SQ Detector 2 (Waters, Milford, USA). The reverse phase BEH C18 column (100 mm × 2.1 mm, 1.7 μm, Waters) and VanGuard BEH C18 guard column (5 mm × 2.1 mm, 1.7 μm, Waters) were used. All data were acquired by Empower 3. The mobile phase for LC separation was Millipore water (A) and acetonitrile (B), and the program was as follows: 0.00 min 90% A → 0.50 min 90% A → 6.50 min 5% A → 8.50 min 5% A → 8.60 min 90% A → 9.00 min 90% A; at a rate of 0.4 mL/min for 9.00 min with 5 μL per injection. The temperature of the column oven was maintained at 40 °C. Mass spectrometer parameters were set as follows: cone voltage, 40.0 V, for positive/negative ion mode; desolvation temperature, 200 °C; cone gas flow(N2), 1 L/h; and desolvation gas flow (N2), 650 L/h.

[17] = RPMI-8226, 24 h, read-out: RPMI8226 IC50

Chain of platelet surface PDI (P07237 18-508): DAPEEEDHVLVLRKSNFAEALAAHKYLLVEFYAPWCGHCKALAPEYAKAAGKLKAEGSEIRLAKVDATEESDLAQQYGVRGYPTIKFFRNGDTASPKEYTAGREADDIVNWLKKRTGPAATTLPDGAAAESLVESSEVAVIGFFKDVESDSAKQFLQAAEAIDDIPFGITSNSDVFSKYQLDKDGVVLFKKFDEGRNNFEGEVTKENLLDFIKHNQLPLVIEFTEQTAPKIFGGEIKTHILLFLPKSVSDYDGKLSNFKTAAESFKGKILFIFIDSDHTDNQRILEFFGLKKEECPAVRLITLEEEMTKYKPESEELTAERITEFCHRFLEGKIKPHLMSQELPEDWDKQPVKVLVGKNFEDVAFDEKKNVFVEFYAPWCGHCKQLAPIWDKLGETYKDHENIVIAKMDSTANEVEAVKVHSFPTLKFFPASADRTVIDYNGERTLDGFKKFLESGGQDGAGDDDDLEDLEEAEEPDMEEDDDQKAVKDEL
Chain of purified human recombinant PDI (rPDI) (P07237 18-508): as above
Chain of Human rPDI (P07237 18-508): as above

Row | SMILES | tumor cell-induced increase in extracellular PDGF and ATP (platelet secretion) [2] | IC50 [3] [µM] | IC50 [4] [µM] | Permeability (%) [5] [%] | IC50 [7] [µM] | IC50 [8] [µM] | IC50 [9, 17] [µM] | IC50 [10] [µM] | IC50 [11] [µM] | IC50 ([12]; read-out: PDI IC50, Table 4) [µM] | IC50 ([12]; read-out: rPDI IC50, 5 μM DTT) [µM] | IC50 [13] [µM] | S.I. (EAhy926/RPMI8226), selectivity index [9] | further results
1 | CCCSc1nc(N[C@@H]2C[C@H]2c2ccc(F)c(F)c2)c2nnn([C@@H]3C[C@H](OCCO)[C@@H](O)[C@H]3O)c2n1 [ticagrelor, reference compound] | not |  |  |  |  |  |  |  |  |  |  |  |  | effect of comparators on TCIPA ([1]; anti-TF antibody 20 μg/mL, hirudin 0.01 μM, aspirin 100 μM, ticagrelor 1 μM): no or little effect
2 | O=C1C=CC(=O)c2c(O)cccc21 [JUG (7), 5-hydroxy-1,4-naphthoquinone, reference compound] |  | 4.45 ± 0.47 | 1.18 ± 0.14 | 83.43 | 7.45 ± 0.33 | 11.9 ± 0.6 | 3.95 ± 0.7 | 5.57 ± 0.02 | 6.15 ± 0.78 | 1.1 ± 0.17 | 1.1 ± 0.17 | 0.63 ± 0.07 |  | PDI-inhibitory activity in the presence of GSH [6]: completely lost PDI-inhibitory activity
3 | CC(=O)OC[C@H]1O[C@H](OC2=CC(=O)c3cccc(O)c3C2=O)[C@H](OC(C)=O)[C@@H](OC(C)=O)[C@@H]1OC(C)=O [Compound 22, 2-(2,3,4,6-Tetra-α-O-acetylglucopyranosyl)-8-hydroxynaphthalene-1,4-dione] | reduced | 1.54 ± 0.02 | 0.5 ± 0.08 | 57.45 | 3.22 ± 0.37 | 8.95 ± 0.23 | 0.66 ± 0.08 | 5.42 ± 0.05 | 4.42 ± 0.98 | 0.63 ± 0.12 | 0.63 ± 0.12 | 0.62 ± 0.06 | 8.2 | concentrations inhibiting ERp57 and ERp72 relative to PDI [14]: 4 to 7 fold; prevention of TCIPA ([1]; 2 μM, A549, MDA-MB-231, RPMI8226 cells, in the presence of plasma): significantly prevented TCIPA; platelet-enhanced cancer cell growth [15]: to a lesser extent; IC50 ([9]; RPMI-8226, 72 h, read-out: RPMI8226 IC50, 72 h): 0.048 µM
4 | COc1ccc(SC2=C(c3ccc(O)cc3O)C(=O)c3c(O)cccc3C2=O)cc1 [Compound 30, 2-(2,4-Dihydroxyphenyl)-3-((4-methoxyphenyl)thio)-8-hydroxynaphthalene-1,4-dione] |  | 1.37 ± 0.03 | 5.19 ± 1.22 | 12.64 | 11.2 ± 1.01 | 17.55 ± 0.06 | 5.89 ± 0.32 | 11 ± 0.33 | 16 ± 1.35 |  | 2.27 ± 0.8 | 0.47 ± 0.05 | 1.9 | stability in aqueous conditions (UPLC-MS) ([16]; 400 μM in water): remained intact in aqueous conditions; GSH adduct formation after GSH treatment (UPLC-MS) ([16]; 400 μM, GSH 4 mM): only a small amount
